Earlier results in patent publication US20240342237A1, “COMPOSITION AND METHODS OF TREATMENT USING TRANSDERMAL SUPPLEMENTATION” (Xygenyx Inc., priority 2023, published 2024).
Square brackets hold non-standard residues; d marks the D form. Peptide text beside a SMILES is read from it. Cit = NC(=O)NCCC[C@H](N)C(=O)O

Tests used:
skin [1] = details: topical application, concentrations 0.5-5%
[2] = in vivo
[3] = system: wide dynamic range neurons in the ventroposterolateral nucleus of the thalamus; details: in vivo
[4] = compared to α-tocopherol = 1.0
[5] = dietary intake in equal portions
skin [6] = details: as penetration enhancer
skin [7] = details: topical formulations, within four weeks of treatment

C=CCCCCCCCCC(=O)N[C@@H](Cc1ccccc1)C(=O)O [UP, Undecylenoyl phenylalanine]
time to skin lightening effects (skin [1]): ≥ 7 days

Cc1c(C)c2c(c(C)c1O)CC[C@@](C)(CCC[C@H](C)CCC[C@H](C)CCCC(C)C)O2 [α-tocopherol]
reduction of risk of coronary disease (dietary supplementation, doses up to 400 IU/day): up to 34%
reduction of risk of developing neurodegenerative diseases such as Alzheimer's Syndrome or dementia (dietary supplementation, doses up to 400 IU/day, controlled trials): ≤ 24%
reduction in the development of age-related cataracts (in combination with 10-20 mg β-carotene and 400-500 mg vitamin C, doses around 400-500 IU): 23%

HGH: hormone comprising a peptide chain that is synthesized in the pituitary gland
biological half-life [2]: 10-20 minutes

CCCCCc1cc(O)c2c(c1)OC(C)(C)C1CCC(C)=CC21 (stereo not shown) [THC, Δ-9-tetrahydrocannabinol]
power in mediating pain relative to morphine [3]: ten times more powerful than morphine

Cc1c(O)cc2c(c1C)O[C@](C)(CCC[C@H](C)CCC[C@H](C)CCCC(C)C)CC2 [γ-tocopherol]
relative biological activity [4]: 0.1
concentration in vivo relative to α-tocopherol [5]: roughly 10%

Cc1cc(O)c(C)c2c1O[C@](C)(CCC[C@H](C)CCC[C@H](C)CCCC(C)C)CC2 [β-tocopherol]
relative biological activity [4]: 0.5

Cc1cc(O)cc2c1O[C@](C)(CCC[C@H](C)CCC[C@H](C)CCCC(C)C)CC2 [δ-tocopherol]
relative biological activity [4]: 0.03

CC(C)[C@@H]1CC[C@@H](C)C[C@H]1O [Menthol]
factor of increase of transdermal drug uptake (skin [6]): ≥ 10

CC[C@H](C)[C@H](NC(=O)[C@H](CC(=O)O)NC(=O)[C@@H](N)CCCCN)C(=O)N[C@@H](CCCNC(N)=O)C(N)=O [tripeptide-10 citrulline, Tripeptide-10 citrulline] (H-KDI[Cit]-NH2)
improvement of suppleness (skin [7]): ≤ 54%

CC12CCC(CC1)C(C)(C)O2 [eucalyptol, 1,8-epoxy-p-menthane]
factor of increase of transdermal drug uptake (skin [6]): more than 10
